Laboratory results taken from PubChem BioAssay (NCI).
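Following 48 hours of exposure in 96-well plates, responses at five concentrations were used to interpolate endpoints linearly. TGI: concentration producing complete growth inhibition.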

Columns and labels:
Experiment in all cases: DTP human tumour cell line panel, 48 h
NCI-H23 lung = tested on: NCI-H23 lung
786-0 renal = tested on: 786-0 renal
IGROV1 ovarian = tested on: IGROV1 ovarian
SF-539 CNS = tested on: SF-539 CNS
OVCAR-3 ovarian = tested on: OVCAR-3 ovarian
HT29 colon = tested on: HT29 colon
UACC-257 melanoma = tested on: UACC-257 melanoma
M19-MEL melanoma = tested on: M19-MEL melanoma
DMS 114 small cell lung = tested on: DMS 114 small cell lung
SR leukemia = tested on: SR leukemia
SF-295 CNS = tested on: SF-295 CNS
HCC-2998 colon = tested on: HCC-2998 colon
SK-MEL-2 melanoma = tested on: SK-MEL-2 melanoma
LOX IMVI melanoma = tested on: LOX IMVI melanoma
M14 melanoma = tested on: M14 melanoma
HCT-15 colon = tested on: HCT-15 colon
ACHN renal = tested on: ACHN renal
SK-MEL-28 melanoma = tested on: SK-MEL-28 melanoma
HCT-116 colon = tested on: HCT-116 colon
MALME-3M melanoma = tested on: MALME-3M melanoma
U251 CNS = tested on: U251 CNS
COLO 205 colon = tested on: COLO 205 colon
SK-MEL-5 melanoma = tested on: SK-MEL-5 melanoma
SW-620 colon = tested on: SW-620 colon
RXF-631 renal = tested on: RXF-631 renal
KM20L2 colon = tested on: KM20L2 colon
DMS 273 small cell lung = tested on: DMS 273 small cell lung
OVCAR-4 ovarian = tested on: OVCAR-4 ovarian
NCI-H460 lung = tested on: NCI-H460 lung
TK-10 renal = tested on: TK-10 renal
HOP-18 NSCLC = tested on: HOP-18 NSCLC
HL-60(TB) leukemia = tested on: HL-60(TB) leukemia
EKVX NSCLC = tested on: EKVX NSCLC
K-562 leukemia = tested on: K-562 leukemia
KM12 colon = tested on: KM12 colon
A549 NSCLC = tested on: A549 NSCLC
RXF 393 renal = tested on: RXF 393 renal
MOLT-4 leukemia = tested on: MOLT-4 leukemia
OVCAR-8 ovarian = tested on: OVCAR-8 ovarian
NCI-H522 lung = tested on: NCI-H522 lung
SNB-78 CNS = tested on: SNB-78 CNS
UO-31 renal = tested on: UO-31 renal
UACC-62 melanoma = tested on: UACC-62 melanoma
HOP-62 NSCLC = tested on: HOP-62 NSCLC
HOP-92 NSCLC = tested on: HOP-92 NSCLC
A498 renal = tested on: A498 renal
DLD-1 colon = tested on: DLD-1 colon
CCRF-CEM leukemia = tested on: CCRF-CEM leukemia
SF-268 CNS = tested on: SF-268 CNS
LXFL 529 NSCLC = tested on: LXFL 529 NSCLC
XF 498 CNS = tested on: XF 498 CNS
NCI-H226 lung = tested on: NCI-H226 lung

Compound `COc1ccc(C(c2ccccc2)(c2ccc(OC)cc2)N2C(=O)NC3C(CCCCC(=O)NCCCCCCOP(OCCC#N)N(C(C)C)C(C)C)SCC32)cc1` (configuration not stated) has a TGI (NCI-H23 lung) of 32.3 µM, a TGI (786-0 renal) of 35.9 µM and a TGI (IGROV1 ovarian) of 40.3 µM. The TGI (SF-539 CNS) was 28.1 µM, the TGI (OVCAR-3 ovarian) was 28.1 µM and the TGI (HT29 colon) was 31.7 µM. For the same compound, the TGI (UACC-257 melanoma) was 42.6 µM, the TGI (M19-MEL melanoma) was 33.1 µM and the TGI (DMS 114 small cell lung) was 36.8 µM. The TGI (SR leukemia) was 27.2 µM, the TGI (SF-295 CNS) was 31.2 µM and the TGI (HCC-2998 colon) was 31.6 µM. It also gave a TGI (SK-MEL-2 melanoma) of 24.9 µM, a TGI (LOX IMVI melanoma) of 24 µM and a TGI (M14 melanoma) of 34.2 µM. The TGI (HCT-15 colon) was 35.6 µM, the TGI (ACHN renal) was 29.9 µM and the TGI (SK-MEL-28 melanoma) was 29 µM. The TGI (HCT-116 colon) was 24.9 µM, the TGI (MALME-3M melanoma) was 33.5 µM and the TGI (U251 CNS) was 28.5 µM. It also gave a TGI (COLO 205 colon) of 40.7 µM, a TGI (SK-MEL-5 melanoma) of 31 µM and a TGI (SW-620 colon) of 43.8 µM. For the same compound, the TGI (RXF-631 renal) was 17.7 µM, the TGI (KM20L2 colon) was 30.8 µM and the TGI (DMS 273 small cell lung) was 25.3 µM. It also gave a TGI (OVCAR-4 ovarian) of 40 µM, a TGI (NCI-H460 lung) of 33.8 µM and a TGI (TK-10 renal) of 35.7 µM. It also gave a TGI (HOP-18 NSCLC) of 24.4 µM, a TGI (HL-60(TB) leukemia) of 32.1 µM and a TGI (EKVX NSCLC) of 56.5 µM. It also gave a TGI (K-562 leukemia) of 32.2 µM, a TGI (KM12 colon) of 34 µM and a TGI (A549 NSCLC) of 41.8 µM. For the same compound, the TGI (RXF 393 renal) was 24.2 µM, the TGI (MOLT-4 leukemia) was 28.5 µM and the TGI (OVCAR-8 ovarian) was 90.6 µM. The TGI (NCI-H522 lung) was 27.3 µM, the TGI (SNB-78 CNS) was 34.6 µM and the TGI (UO-31 renal) was 27.5 µM. It also gave a TGI (UACC-62 melanoma) of 27.4 µM, a TGI (HOP-62 NSCLC) of 36.6 µM and a TGI (HOP-92 NSCLC) of 35 µM. The TGI (A498 renal) was 35 µM, the TGI (DLD-1 colon) was 29.4 µM and the TGI (CCRF-CEM leukemia) was 25.6 µM. The TGI (SF-268 CNS) was 30.6 µM, the TGI (LXFL 529 NSCLC) was 25.2 µM and the TGI (XF 498 CNS) was 30.8 µM. For the same compound, the TGI (NCI-H226 lung) was 30.4 µM.
